Test results reported in PubChem BioAssay AID624473 (Sanford-Burnham Center for Chemical Genomics, 2012).
Where “and” joins values, the source holds several entries; their conditions need not be identical. Identical values can stand only once. Calls of active or inactive are those of the source.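 Rule for the calls: active = IC50 at or below 20 µM in the dose response; inactive = the rest.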

Tested on: HL-1 cardiomyocytes, 2-deoxyglucose injury, ATPlite viability, 2 h
Test: protection of HL-1 cells from ATP loss, SAR follow-up, 2-deoxyglucose, set 2 (AID 624473)

Question: COc1ccc2c(c1OC)C(=O)N1c3ccccc3C(=O)N(c3ccccc3)C21 (stereo not given) was tested. Which IC50 did it give?
Answer: 5.09 µM

Question: COc1ccc2c(c1OC)C(=O)N1c3ccccc3C(=O)N(c3cccc(Cl)c3)C21 (stereo not given) was tested. Which IC50 did it give?
Answer: 7.57 µM

Question: How did the IC50 turn out when COc1ccc2c(c1OC)C(=O)N1c3ccccc3C(=O)N(c3cccc(F)c3)C21 (stereo not given) was run?
Answer: 13.9 µM

Question: With CCN(CC(=O)Nc1ccc(OC)cc1)C(=O)c1cc(-c2cccs2)nn1-c1ccccc1 as the compound, how does the IC50 read?
Answer: 8.33 µM and 9.6 µM

Question: For COc1cccc(NC(=O)c2cc(-c3cc(OC)c(OC)c(OC)c3)nc3ccccc23)c1, which IC50 is on record?
Answer: > 79 µM (inactive)

Question: O=C1c2ccccc2N2C(=O)c3ccccc3C2N1c1ccccc1 (stereo not given) was tested. Which IC50 did it give?
Answer: > 79 µM (inactive)

Question: For COc1cccc(CNC(=O)c2cc(-c3cc(OC)c(OC)c(OC)c3)nc3ccccc23)c1, which IC50 is on record?
Answer: 12.2 µM

Question: COc1ccc2c(c1OC)C(=O)N1c3ccccc3C(=O)N(c3cccc(Br)c3)C21 (stereo not given) was tested. Which IC50 did it give?
Answer: 3.64 µM and 34.8 µM (inactive)

Question: COc1ccc(-c2cc(C(=O)Nc3cccc(C(C)=O)c3)c3ccccc3n2)cc1OC was tested. Which IC50 did it give?
Answer: 19.8 µM (inactive)

Question: Which IC50 does the source give for COc1ccc2c(c1OC)C(=O)N1c3ccccc3C(=O)N(Cc3ccccc3Cl)C21 (stereo not given) here?
Answer: 4 µM

Question: For COc1ccc2c(c1OC)C(=O)N1c3ccccc3C(=O)N(Cc3cccc(Cl)c3)C21 (stereo not given), which IC50 is on record?
Answer: 8.52 µM

Question: COc1cc(-c2cc(C(=O)Nc3cccc(C)c3)c3ccccc3n2)cc(OC)c1OC was tested. Which IC50 did it give?
Answer: > 79 µM (inactive)

Question: How did the IC50 turn out when COc1ccc(NC(=O)c2cc(-c3cc(OC)c(OC)c(OC)c3)nc3ccccc23)cc1 was run?
Answer: > 79 µM (inactive)

Question: How did the IC50 turn out when COc1cc(-c2cc(C(=O)Nc3cccc(F)c3)c3ccccc3n2)cc(OC)c1OC was run?
Answer: > 79 µM (inactive)

Question: Which IC50 does the source give for COc1cccc(CNC(=O)c2cc(-c3ccc(OC)c(OC)c3)nc3ccccc23)c1 here?
Answer: 9.42 µM

Question: With CCOC(=O)c1cccc(NC(=O)c2cc(-c3cc(OC)c(OC)c(OC)c3)nc3ccccc23)c1 as the compound, how does the IC50 read?
Answer: 4.29 µM

Question: How did the IC50 turn out when COc1ccc2c(c1OC)C(=O)N1c3ccccc3C(=O)N(c3cccc(C)c3)C21 (stereo not given) was run?
Answer: 16.5 µM

Question: CCN(CC(=O)Nc1ccc(OC)cc1)C(=O)c1cc(-c2cc(OC)c(OC)c(OC)c2)nc2ccccc12 was tested. Which IC50 did it give?
Answer: 22.6 µM (inactive)

Question: With COc1ccc2c(c1OC)C(=O)N1c3ccccc3C(=O)N(c3ccc(C(C)(C)C)cc3)C21 (stereo not given) as the compound, how does the IC50 read?
Answer: > 79 µM (inactive)

Question: For COc1ccc2c(c1OC)C(=O)N1c3ccccc3C(=O)N(c3ccc(C)cc3)C21 (stereo not given), which IC50 is on record?
Answer: 3.03 µM

Question: Which IC50 does the source give for COc1cc(-c2cc(C(=O)Nc3ccc(C(C)=O)cc3)c3ccccc3n2)cc(OC)c1OC here?
Answer: 6.65 µM

Question: COc1cccc(N2C(=O)c3ccccc3N3C(=O)c4ccccc4C23)c1 (stereo not given) was tested. Which IC50 did it give?
Answer: > 79 µM (inactive)

Question: CC(=O)c1cccc(NC(=O)c2cc(-c3ccccc3)nc3ccccc23)c1 was tested. Which IC50 did it give?
Answer: 14 µM

Question: Which IC50 does the source give for COc1cc(-c2cc(C(=O)Nc3cccc(C(C)=O)c3)c3ccccc3n2)cc(OC)c1OC here?
Answer: 7.15 µM and 10.3 µM

Question: For O=C1c2ccccc2N2C(=O)c3ccccc3C2N1c1cccc(Br)c1 (stereo not given), which IC50 is on record?
Answer: > 79 µM (inactive)

Question: With COc1cccc(N2C(=O)c3ccccc3N3C(=O)c4c(ccc(OC)c4OC)C23)c1 (stereo not given) as the compound, how does the IC50 read?
Answer: 15.6 µM

Question: How did the IC50 turn out when COc1cc(-c2cc(C(=O)Nc3cccc(Cl)c3)c3ccccc3n2)cc(OC)c1OC was run?
Answer: > 79 µM (inactive)

Question: COc1ccc(N2C(=O)c3ccccc3N3C(=O)c4c(ccc(OC)c4OC)C23)cc1 (stereo not given) was tested. Which IC50 did it give?
Answer: 18.2 µM

Question: For COc1cc(-c2cc(C(=O)Nc3cccc(C(F)(F)F)c3)c3ccccc3n2)cc(OC)c1OC, which IC50 is on record?
Answer: > 79 µM (inactive)

Question: How did the IC50 turn out when COc1ccc(-c2cc(C(=O)Nc3cccc(C(C)=O)c3)c3ccccc3n2)cc1 was run?
Answer: > 79 µM (inactive)

Question: Which IC50 does the source give for COc1ccc2c(c1OC)C(=O)N1c3ccccc3C(=O)N(c3ccc(Br)cc3)C21 (stereo not given) here?
Answer: 1.95 µM

Question: How did the IC50 turn out when COc1ccc2c(c1OC)C(=O)N1c3ccccc3C(=O)N(c3cccc(C(F)(F)F)c3)C21 (stereo not given) was run?
Answer: 19.8 µM

Question: COc1cc(-c2cc(C(=O)Nc3ccccc3)c3ccccc3n2)cc(OC)c1OC was tested. Which IC50 did it give?
Answer: 8.04 µM

Question: With COc1cccc(-c2cc(C(=O)Nc3cccc(C(C)=O)c3)c3ccccc3n2)c1 as the compound, how does the IC50 read?
Answer: 9.47 µM

Question: Which IC50 does the source give for COc1cc(-c2cc(C(=O)Nc3cccc(C(C)=O)c3)c3cc(Cl)ccc3n2)cc(OC)c1OC here?
Answer: > 79 µM (inactive)
